Data taken from patent publication US11859212B2, “Method for producing intestinal organoid derived from pluripotent stem cells” (PUBLIC UNIVERSITY CORPORATION NAGOYA CITY UNIVERSITY, priority 2017, dated 2024).
Read-outs that look alike come from different tables or passages of the source.

Experiments:
ABCG2/BCRP = biological target: T1, ABCG2/BCRP (Homo sapiens, UniProt Q9UNQ0); assay: Hoechst 33342 transport experiment, human intestinal organoids obtained with polysaccharide polymers; format: in vitro ADME
T1 sequence (Q9UNQ0 1-655): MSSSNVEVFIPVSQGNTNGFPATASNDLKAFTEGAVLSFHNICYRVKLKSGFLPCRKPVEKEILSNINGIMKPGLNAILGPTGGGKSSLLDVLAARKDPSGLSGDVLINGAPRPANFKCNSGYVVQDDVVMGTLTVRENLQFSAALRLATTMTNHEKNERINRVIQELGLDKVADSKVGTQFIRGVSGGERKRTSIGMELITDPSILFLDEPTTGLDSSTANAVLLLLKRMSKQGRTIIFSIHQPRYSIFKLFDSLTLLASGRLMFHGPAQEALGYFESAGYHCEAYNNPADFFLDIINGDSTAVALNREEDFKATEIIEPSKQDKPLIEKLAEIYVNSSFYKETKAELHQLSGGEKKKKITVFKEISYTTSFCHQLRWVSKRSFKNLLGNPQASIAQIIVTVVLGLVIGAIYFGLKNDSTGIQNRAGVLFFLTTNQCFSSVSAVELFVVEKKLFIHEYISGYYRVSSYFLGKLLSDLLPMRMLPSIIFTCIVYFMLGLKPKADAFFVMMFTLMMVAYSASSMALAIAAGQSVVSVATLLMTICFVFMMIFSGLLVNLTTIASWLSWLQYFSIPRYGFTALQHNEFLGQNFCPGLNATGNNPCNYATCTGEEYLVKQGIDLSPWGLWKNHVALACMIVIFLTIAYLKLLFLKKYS

CYP3A8 [1] = system: CYP3A8
CYP3A4 [2] = assay: CYP3A4 induction ability of human intestinal organoids obtained with polysaccharide polymers (mRNA and midazolam metabolic activity); settings: VD3 1 μmol/L, 72 hours
CYP3A4 [3] = system: CYP3A4
CYP3A4 [4] = assay: Drug metabolism experiment with midazolam, CYP3A4 metabolic activity of human intestinal organoids obtained with polysaccharide polymers; settings: 5 μmol/L midazolam
CYP3A8 [5] = assay: Drug metabolism experiment with midazolam, CYP3A8 metabolic activity of cynomolgus monkey intestinal organoids; settings: 5 μmol/L midazolam, 37° C., 24 hours
ABCB1/MDR1 [6] = biological target: T2, ABCB1/MDR1 (Homo sapiens, UniProt P08183); assay: Rhodamine 123 transport experiment, human intestinal organoids obtained with polysaccharide polymers; format: in vitro ADME
ABCB1/MDR1 [7] = biological target: T2, ABCB1/MDR1; assay: Rhodamine 123 uptake experiment, function of ABCB1/MDR1 in human intestinal organoids (fluorescence observation); format: in vitro ADME; settings: rhodamine 123 10 μmol/L, 37° C., 1 hour, absence of verapamil

T2 sequence (P08183 whole entry): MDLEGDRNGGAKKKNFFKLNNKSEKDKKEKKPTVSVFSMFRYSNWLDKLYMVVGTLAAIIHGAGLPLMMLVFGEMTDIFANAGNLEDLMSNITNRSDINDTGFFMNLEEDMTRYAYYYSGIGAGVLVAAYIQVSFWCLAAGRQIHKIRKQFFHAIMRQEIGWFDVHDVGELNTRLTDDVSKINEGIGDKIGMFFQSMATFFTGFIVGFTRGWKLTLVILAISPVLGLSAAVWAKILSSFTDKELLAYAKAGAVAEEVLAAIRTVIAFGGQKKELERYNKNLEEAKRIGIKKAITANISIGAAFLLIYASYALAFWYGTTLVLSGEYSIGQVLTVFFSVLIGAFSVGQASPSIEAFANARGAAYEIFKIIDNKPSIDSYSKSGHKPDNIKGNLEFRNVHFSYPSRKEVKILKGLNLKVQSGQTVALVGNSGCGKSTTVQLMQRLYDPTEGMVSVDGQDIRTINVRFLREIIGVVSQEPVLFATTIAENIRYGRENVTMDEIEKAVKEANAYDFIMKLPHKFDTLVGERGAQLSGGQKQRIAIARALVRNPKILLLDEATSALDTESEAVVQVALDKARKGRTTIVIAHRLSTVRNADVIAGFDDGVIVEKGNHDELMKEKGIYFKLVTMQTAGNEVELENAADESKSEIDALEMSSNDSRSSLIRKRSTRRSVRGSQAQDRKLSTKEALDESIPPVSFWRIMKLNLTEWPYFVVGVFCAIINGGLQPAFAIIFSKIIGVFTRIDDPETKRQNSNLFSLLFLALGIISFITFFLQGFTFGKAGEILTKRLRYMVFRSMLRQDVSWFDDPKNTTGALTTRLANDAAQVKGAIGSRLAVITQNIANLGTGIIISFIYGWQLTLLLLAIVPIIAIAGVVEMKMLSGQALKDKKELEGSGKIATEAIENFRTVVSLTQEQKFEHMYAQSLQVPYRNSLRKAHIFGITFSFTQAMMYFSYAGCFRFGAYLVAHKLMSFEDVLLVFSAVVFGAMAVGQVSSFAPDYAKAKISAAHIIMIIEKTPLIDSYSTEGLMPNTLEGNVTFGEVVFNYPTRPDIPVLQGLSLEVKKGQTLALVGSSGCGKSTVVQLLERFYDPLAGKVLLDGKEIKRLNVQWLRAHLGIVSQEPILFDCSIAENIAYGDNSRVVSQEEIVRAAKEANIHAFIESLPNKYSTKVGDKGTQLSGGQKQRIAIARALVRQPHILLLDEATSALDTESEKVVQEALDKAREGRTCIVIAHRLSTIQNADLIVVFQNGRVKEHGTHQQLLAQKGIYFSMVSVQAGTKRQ

`CCOc1ccc(-c2nc3ccc(-c4nc5ccc(N6CCN(C)CC6)cc5[nH]4)cc3[nH]2)cc1` [Hoechst 33342] was tested, and the “excretion of Hoechst 33342 into the intestinal organoids” value (ABCG2/BCRP) was “observed”.

With `C=C1/C(=C\C=C2/CCC[C@]3(C)[C@@H]([C@H](C)CCCC(C)(C)O)CC[C@@H]23)C[C@@H](O)C[C@@H]1O` [VD3, 1α, 25-dihydroxyvitamin D3] the “induction of mRNA expression of CYP3A8 as compared with the control group” value (CYP3A8 [1]) was “no induction”, the “midazolam metabolic activity in the inducer-added group” value (CYP3A4 [2]; 5 μmol/L midazolam) was “significantly increased” and the “induction of mRNA expression of CYP3A4 as compared with the control group” value (CYP3A4 [2]; organoids obtained with polysaccharide polymers) was “significantly induced”. The “induction of mRNA expression of CYP3A4 as compared with the control group” value (CYP3A4 [3]) was “approximately 4.5 times”.

For `CC(=O)N1CCN(c2ccc(OCC3COC(Cn4ccnc4)(c4ccc(Cl)cc4Cl)O3)cc2)CC1` (stereo not shown) [ketoconazole], the “effect of inhibitor on midazolam metabolic activity” value (CYP3A4 [4]) was “significantly inhibited”.

With `Cc1ncc2n1-c1ccc(Cl)cc1C(c1ccccc1F)=NC2` [midazolam] the midazolam metabolic activity (CYP3A8 [5]) was “observed” and the midazolam metabolic activity (CYP3A4 [4]; 37° C., 24 hours) was “observed”.

In the case of rhodamine 123, the “excretion of rhodamine 123 into the intestinal organoids” value (ABCB1/MDR1 [6]) was “observed” and the “excretion of rhodamine 123 into the intestinal organoids” value (ABCB1/MDR1 [7]) was “observed”.
